Here are results for three molecules from ChEMBL document CHEMBL1155912, “Synthesis of 6- or 4-functionalized indoles via a reductive cyclization approach and evaluation as aromatase inhibitors” (Bioorg Med Chem Lett, 2008).

For orientation: inhibition means the change of the read-out against control, counted positive when it falls. Higher therefore signals strong suppression.

Molecules are shown by their SMILES.

The target in this series is T1, CYP17 (steroid 17-alpha-hydroxylase/17,20 lyase) (Homo sapiens, UniProt P05093).
T1 sequence (P05093 whole entry): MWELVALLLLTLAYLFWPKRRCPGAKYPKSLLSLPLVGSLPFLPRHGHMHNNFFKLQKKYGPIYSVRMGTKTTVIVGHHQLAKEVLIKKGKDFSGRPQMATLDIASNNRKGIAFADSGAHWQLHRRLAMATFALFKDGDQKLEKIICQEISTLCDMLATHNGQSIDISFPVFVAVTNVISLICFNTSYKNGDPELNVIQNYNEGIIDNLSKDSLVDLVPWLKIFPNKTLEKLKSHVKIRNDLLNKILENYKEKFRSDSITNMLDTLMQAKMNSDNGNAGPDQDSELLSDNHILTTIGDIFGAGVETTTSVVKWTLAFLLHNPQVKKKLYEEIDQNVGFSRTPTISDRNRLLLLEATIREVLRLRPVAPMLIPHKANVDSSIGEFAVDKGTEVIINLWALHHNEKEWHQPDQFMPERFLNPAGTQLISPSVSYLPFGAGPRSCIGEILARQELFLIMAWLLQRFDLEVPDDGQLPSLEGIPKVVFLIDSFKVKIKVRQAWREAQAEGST
The series is described as follows: in vitro.
Description: Inhibition of human CYP17 expressed in Escherichia coli pJL17/OR coexpressed with rat NADPH-P450 reductase at 2.5 uM
In the case of `N#Cc1ccc(C(c2cccc3[nH]ccc23)n2ccnc2)cc1` (stereo not drawn), the inhibition at 2.5 µM was 18%.

With `N#Cc1ccc(C(c2cccc3[nH]ccc23)n2cncn2)cc1` (stereo not drawn), the inhibition at 2.5 µM was under 10%.

In the case of `N#Cc1ccc(C(c2ccc3cc[nH]c3c2)n2ccnc2)cc1` (racemic), the inhibition at 2.5 µM was 26%.
